Test results from patent publication US20250122189A1, “FGFR4 INHIBITOR ACID SALT, PREPARATION METHOD THEREFOR AND USE THEREOF” (Abbisko Therapeutics Co., Ltd., priority 2021, published 2025).
Counter-ions that a name gives are not always drawn.

What was measured:
Solubility in water = type: physicochemical; settings: stirred 24 hrs at room temperature
Description: 2 mg of the p-toluenesulfonate salt of the compound of formula (I) (Form A) and 2 mg of the compound of formula (I) in free form were separately placed in a 2 mL glass bottle, 0.4 mL of water was added into the glass bottles separately, the two mixtures were each stirred for 24 hrs on a magnetic stirrer at room temperature and then centrifuged, and the content measurement was carried out by using a liquid phase.

[1] = In vivo pharmacokinetic experiment in monkeys; settings: Monkey, 200 mpk (based on the compound in free form); 200 mg/kg
Excerpt: The p-toluenesulfonate salt of the compound of formula (I) (Form A) and the compound of formula (I) in free form were each subjected to PK experiments in monkeys, and the administration dose was 200 mpk (based on the compound in free form).

[2] = Stability test under high temperature and accelerated conditions (chemical purity); type: physicochemical
Excerpt: The p-toluenesulfonate salt of the compound of formula (I) (Form A) and the compound of formula (I) in free form were subjected to conditions of high temperature and accelerated experiments for stability test, and the chemical purity was used as an evaluation index to evaluate the stability of the p-toluenesulfonate salt of the compound of formula (I) (Form A) and the compound of formula (I) in free form.

[3] = Solubility in physiological vehicle (25% PEG300/5% Solutol HS15/70% water); type: physicochemical; settings: vehicle 25% PEG300/5% Solutol HS15/70% water (v/v/v), room temperature, various time points (FIG. 7)
Description: 80 mg of the p-toluenesulfonate salt of the compound of formula (I) (Form A) and 80 mg of the compound of formula (I) in free form were separately placed in a 4 mL glass bottle, 2 mL of vehicle (25% PEG300/5% Solutol HS15/70% water) (v/v/v) was added into the glass bottles separately, the two mixtures were each stirred on a magnetic stirrer at room temperature, samples were taken at various time points and centrifuged, and the content measurement was carried out by using a liquid phase.

[4] = Hygroscopic behavior test (dynamic vapor sorption); type: physicochemical; settings: DVS, 25° C., relative humidity 0% to 90%
Excerpt: The experimental method of characterizing the crystalline acidic salts of the compound of formula (I) using dynamic vapor sorption (DVS) is as follows: a small amount of crystalline acidic salt powder of the compound of formula (I) was placed in a precision sample pan that came with the instrument; after the sample was loaded, the aluminum pan was sent into the instrument for analysis. In the present patent, the instruments used for dynamic vapor sorption were all the DVS Intrinsic model, and the experimental parameters were set as follows: nitrogen was set as carrier gas, the constant temperature was set to 25° C., the rate of mass percentage change over a unit of time (dm/dt)=0.01%/min was used as a criterion for determining if an equilibrium is reached, and the program humidity change cycle was set as follows: the initial relative humidity was 0%, the relative humidity was 90% at the end of the cycle, 2 cycles were set, and each 10% R.H. change was a step.
The hygroscopic weight gains of the p-toluenesulfonate salt of the compound of formula (I) (Form A) in various relative humidity conditions (hygroscopic weight gain/pre-hygroscopic weight*100%) were measured according to the dynamic vapor sorption method to assess the hygroscopicity of the p-toluenesulfonate salt of the compound of formula (I) (Form A).

Solubility (Solubility in water)	AUC [1]	Chemical stability (% initial) ([2]; 40° C./75% RH, 3 d)	Chemical stability (% initial) ([2]; 40° C./75% RH, 7 d)	Chemical stability (% initial) ([2]; 40° C./75% RH, 14 d)	Chemical stability (% initial) ([2]; 60° C., 3 d)	Chemical stability (% initial) ([2]; 60° C., 7 d)	Chemical stability (% initial) ([2]; 60° C., 14 d)	solubility compared with the compound of formula (I) in free form [3]	weight change along with the increase of relative humidity (hygroscopic weight gain) [4]	SMILES
25.6 µg/mL	9952 ng·h/mL	99.9 % initial	100.0 % initial	100.0 % initial	100.1 % initial	100.1 % initial	100.1 % initial	–	–	C=CC(=O)N[C@H]1CCOC[C@H]1Nc1ncc2cc(-c3c(F)c(OC)cc(OC)c3F)nc(N3CC(C)(OC)C3)c2n1 [Compound of formula (I) in free form, N-((3S,4S)-3-((6-(2,6-difluoro-3,5-dimethoxyphenyl)-8-(3-methoxy-3-methylazetidin-1-yl)pyrido[3,4-d]pyrimidin-2-yl)amino)tetrahydro-2H-pyran-4-yl)acrylamide]
1370 µg/mL	124860 ng·h/mL	100.2 % initial	100.1 % initial	100.0 % initial	100.3 % initial	99.8 % initial	99.8 % initial	significantly higher	no more than 2%	C=CC(=O)N[C@H]1CCOC[C@H]1Nc1ncc2cc(-c3c(F)c(OC)cc(OC)c3F)nc(N3CC(C)(OC)C3)c2n1 [p-toluenesulfonate salt of the compound of formula (I) (Form]
